± gives the standard deviation of the reports.
SMILES | glass transition temperature [°C]
*c1ccc2c(c1)C(=O)N(c1cccc(N3C(=O)c4ccc(C(*)(C(F)(F)F)C(F)(F)F)cc4C3=O)c1C)C2=O (repeat unit) | 353.50
*N=P(*)(CC)c1ccccc1 (repeat unit) | 20.00
*OP(=O)(Oc1ccccc1)Oc1c(C)cc(S(=O)(=O)c2cc(C)c(*)c(C)c2)cc1C (repeat unit) | 142.00
*c1ccc2c(c1)C(=O)N(c1ccc(C(C)(C)c3ccc(C(C)(C)c4ccc(N5C(=O)c6ccc(C(*)(C(F)(F)F)C(F)(F)F)cc6C5=O)cc4)cc3)cc1)C2=O (repeat unit) | 235.40
*CC(CCCCCCCCCCCC)COC(=O)NC(=O)c1cccc(C(=O)NC(=O)O*)c1 (repeat unit) | 112.00
*c1cccc(OCCCCCCCCOc2cccc(N3C(=O)c4ccc(-c5cccc6c5C(=O)N(*)C6=O)cc4C3=O)c2)c1 (repeat unit) | 142.00
*Oc1cc(C)cc(OC(=O)c2cccc(C(*)=O)c2)c1 (repeat unit) | 163.00
*N=P(N=P(N=S(*)(=O)NCC=C)(NCC=C)NCC=C)(NCC=C)NCC=C (repeat unit) | -18.00
*c1ccc(Oc2ccc(C3(c4ccc(Oc5ccc(N6C(=O)c7ccc(Oc8c(C)cc(C(C)(C)c9cc(C)c(Oc%10ccc%11c(c%10)C(=O)N(*)C%11=O)c(C)c9)cc8C)cc7C6=O)cc5)cc4)CC4CCC3C4)cc2)cc1 (repeat unit) | 265.00
*CC(*)O (repeat unit) [Poly(vinyl alcohol)] | 79.67 ± 32
*C(=O)Nc1cccc(NC(=O)c2ccc3c(c2)C(=O)N(c2ccc(Oc4cccc5c(N6C(=O)c7ccc(*)cc7C6=O)cccc45)cc2)C3=O)n1 (repeat unit) | 293.00
*C(=O)Nc1ccc(-c2ccc(NC(=O)c3ccc4c(c3)C(=O)N(c3c(C)cc(C)c(N5C(=O)c6ccc(*)cc6C5=O)c3C)C4=O)cc2C)c(C)c1 (repeat unit) | 259.00
*Nc1ccc(NC(=O)CCCCCCCCC(*)=O)cc1 (repeat unit) | 125.00
*c1nc(-c2ccccc2)nc(N(CCCCCCCCCCN(*)c2ccccc2)c2ccccc2)n1 (repeat unit) | 62.00
*CC(*)(C)C(=O)Oc1ccc(C(=O)Oc2ccc(OC)cc2)cc1 (repeat unit) | 77.00
*C(=O)Nc1ccc(Oc2ccc(NC(=O)c3ccc(N4C(=O)c5ccc(*)cc5C4=O)cc3)cc2)cc1 (repeat unit) | 296.00
*CC(*)C(=O)OCCCCCCCCCCCCOc1ccc(C(=O)Oc2ccc(-c3cccc(OC(=O)c4ccc(OC(=O)c5ccc(OCCCCCCCCCCCC)cc5)cc4)c3)cc2)cc1 (repeat unit) | 67.00
*CCOC(=O)NCCCCCCCCCCNC(=O)O* (repeat unit) | 60.80
*Oc1ccc(S(=O)c2ccc(Oc3ccc(C(C)(C)c4ccc(*)cc4)cc3)cc2)cc1 (repeat unit) | 165.00
*Oc1ccc(-c2ccc(OC(=O)Nc3cccc(P(=O)(c4ccccc4)c4cccc(NC(*)=O)c4)c3)cc2)cc1 (repeat unit) | 72.00
*C(=O)Nc1ccc(Oc2cccc(NC(=O)c3ccc4c(c3)C(=O)N(c3ccc(Oc5ccc(C6(c7ccc(Oc8ccc(N9C(=O)c%10ccc(*)cc%10C9=O)cc8)cc7)NC(=O)c7ccccc76)cc5)cc3)C4=O)c2)cc1 (repeat unit) | 302.00
*C(*)C(=O)OC1CCCCC1 (repeat unit) | 140.00
*/N=N/c1ccc(Nc2ccc(C(=O)c3ccc(Nc4ccc(*)cc4)cc3)cc2)cc1 (repeat unit) | 216.42

SMILES | glass transition temperature [°C]
*OS(=O)(=O)c1cc(S(=O)(=O)Oc2ccc(C3(c4ccc(*)c(C)c4)CCCCC3)cc2C)ccc1C (repeat unit) | 141.00
*c1ccc(Oc2ccc(Oc3ccc(N4C(=O)c5ccc(Oc6ccccc6Oc6ccc7c(c6)C(=O)N(*)C7=O)cc5C4=O)cc3C(F)(F)F)cc2)c(C(F)(F)F)c1 (repeat unit) | 197.00
*CC(*)C(=O)OCC(C)O (repeat unit) | -7.00
*c1ccc2c(c1)C(=O)N(c1cccc(Oc3ccc(P(=O)(c4ccccc4)c4ccc(Oc5cccc(N6C(=O)c7ccc(C(*)(C(F)(F)F)C(F)(F)F)cc7C6=O)c5)cc4)cc3)c1)C2=O (repeat unit) | 243.00
*c1ccc2c(c1)C(=O)N(c1ccc(NC(=O)C(F)(F)C(F)(F)C(F)(F)C(F)(F)C(F)(F)C(F)(F)C(=O)Nc3ccc(N4C(=O)c5ccc(C(*)(C(F)(F)F)C(F)(F)F)cc5C4=O)cc3)cc1)C2=O (repeat unit) | 265.00
*c1ccc(-c2ccc(-c3cc(-c4ccc(-c5ccc(Oc6ccccc6)cc5)cc4)c4cc(-c5ccc6nc(*)cc(-c7ccc(-c8ccc(Oc9ccccc9)cc8)cc7)c6c5)ccc4n3)cc2)cc1 (repeat unit) | 374.00
*/C=C/c1cccc(/C=C/[Si](C)(CCC(F)(F)F)c2ccc([Si](*)(C)CCC(F)(F)F)cc2)c1 (repeat unit) | 34.50
*CC(*)(C)C(=O)Oc1c(C(C)C)cccc1C(C)C (repeat unit) | 198.00
*c1ccc(Oc2cccc(Oc3ccc(-n4c(=O)c5cc6c(=O)n(*)c(=O)c6cc5c4=O)cc3)c2C#N)cc1 (repeat unit) | 328.00
*CCCCCCCCCCOC(=O)c1ccccc1C(=O)O* (repeat unit) | -14.00
*c1ccc(*)s1 (repeat unit) | 152.17 ± 89
*O[Si](*)(C)CCC (repeat unit) | -120.00
*Oc1ccc2ccc(Oc3ccc(/C(=N/c4ccc(Oc5ccc(/N=C(\c6ccccc6)c6ccc(*)cc6)cc5)cc4)c4ccccc4)cc3)cc2c1 (repeat unit) | 165.00
*Cc1ccc(COC(=O)Cc2ccc(C(=O)O*)cc2)cc1 (repeat unit) | 47.00
*OC1C(COC(C)=O)OC(*)C(OC(C)=O)C1OC(C)=O (repeat unit) | 178.00
*C1C(=O)N(CCCCCCCOc2ccc(-c3ccc(C#N)cc3)cc2)C(=O)C1* (repeat unit) | 61.00
*c1ccc(Oc2ccc(C(=O)c3ccc(Oc4ccc(C(=O)c5ccc(Oc6ccc(-c7nc(-c8ccc(-c9nc(*)c(-c%10ccccc%10)[nH]9)cc8)[nH]c7-c7ccccc7)cc6)cc5)cc4)cc3)cc2)cc1 (repeat unit) | 245.00
*CC(*)OC(=O)C(F)(F)C(F)(F)C(F)(F)F (repeat unit) | 27.00
*C#Cc1cccc(C#C[SiH2]*)c1 (repeat unit) | 72.00
*CC(*)c1ccc(OC(C)=O)cc1 (repeat unit) [poly(4-acetoxystyrene)] | 121.42 ± 12
*CCOC(=O)NCC1(C)CC(NC(=O)O*)CC(C)(C)C1 (repeat unit) | 84.00
*c1ccc(-c2c(-c3ccccc3)nc3ccc(Oc4ccc5nc(-c6ccccc6)c(*)c(-c6ccccc6)c5c4)cc3c2-c2ccccc2)cc1 (repeat unit) | 311.00
*CC(*)c1c(Cl)cccc1Cl (repeat unit) | 165.00

Source: the PolyMetriX glass transition set
